Publication PMC3295836 (Bioorganic & medicinal chemistry letters, 2012)
Values joined by “and” are separate entries in the source; they are usually repeats but may differ in a detail not shown here. Identical values can stand only once.

Columns and labels:
[1] = biological target: anthrax lethal factor (LF) (Bacillus anthracis, UniProt P15917); format: biochemical
[2] = test system: anthrax lethal toxin (LT; PA + LF); design: species or system Fischer 344 rats; conditions: rat, in vivo
in vivo = conditions: NZW, rabbit, sc, 10 mg/kg
[3] = t = 30 min

Sequence of anthrax lethal factor (LF) (P15917 34-809 limits assumed): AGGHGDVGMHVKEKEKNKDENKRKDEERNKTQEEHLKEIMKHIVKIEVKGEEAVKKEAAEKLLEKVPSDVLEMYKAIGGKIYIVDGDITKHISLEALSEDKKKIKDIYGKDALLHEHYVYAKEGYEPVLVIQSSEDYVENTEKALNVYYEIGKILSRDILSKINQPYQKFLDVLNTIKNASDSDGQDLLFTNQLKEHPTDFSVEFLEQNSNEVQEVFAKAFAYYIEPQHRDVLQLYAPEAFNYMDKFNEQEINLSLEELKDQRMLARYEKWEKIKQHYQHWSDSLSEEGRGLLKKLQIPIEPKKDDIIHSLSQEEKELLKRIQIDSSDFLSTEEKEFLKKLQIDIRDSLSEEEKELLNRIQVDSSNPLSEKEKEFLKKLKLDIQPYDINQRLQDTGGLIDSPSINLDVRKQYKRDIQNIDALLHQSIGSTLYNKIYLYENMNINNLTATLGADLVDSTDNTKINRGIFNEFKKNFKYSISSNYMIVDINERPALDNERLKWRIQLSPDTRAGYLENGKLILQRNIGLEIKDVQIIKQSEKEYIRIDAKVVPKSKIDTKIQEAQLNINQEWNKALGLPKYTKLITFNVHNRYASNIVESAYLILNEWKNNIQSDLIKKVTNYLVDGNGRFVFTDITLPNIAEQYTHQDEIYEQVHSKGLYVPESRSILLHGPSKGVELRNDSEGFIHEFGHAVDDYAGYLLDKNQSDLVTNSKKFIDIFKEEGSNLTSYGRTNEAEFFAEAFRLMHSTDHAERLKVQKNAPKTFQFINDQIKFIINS

Structure (SMILES) | rMST = MST(LFI)/MST(controls) [2] | surv (number of survivors per group) [2] | other results
Cc1cc(C[C@H](CCCCN[C@H](Cc2ccccc2)c2ccc(F)cc2)C(=O)NO)cc(C)c1F [LFI 15] |  |  | LF (FRET) KinM) [1]: sub-nanomolar
Cc1cc(O[C@H](CCCCNCc2ccc(F)cc2)C(=O)NO)cc(C)c1F [LFI 3] | 16.0 | 0/3 | 
CCC(NCCCC[C@@H](Cc1cc(C)c(F)c(C)c1)C(=O)NO)c1ccc(F)cc1 (stereo partly shown) [LFI 18] |  | protect all of the animals and 3/3 and 5/6 | 
CO[C@H](C[C@H](CCCCNCc1ccc(F)cc1)C(=O)NO)c1ccc(F)cc1 [LFI 4] |  | one animal was lost | 
CC[C@@H](NCCCC[C@@H](Cc1cc(C)c(F)c(C)c1)C(=O)NO)c1ccc(F)cc1 [LFI 11] |  |  | difference in potency against LF between analogs [1]: 50 fold
Cc1cc(C[C@H](CCCCNCc2ccc(F)cc2)C(=O)NO)cc(C)c1F [LFI 2] | 19.3 | 1/3 and 3/3 | 
CCC(NCCCC[C@@H](C[C@@H](OC)c1ccc(F)cc1)C(=O)NO)c1ccc(F)cc1 (stereo partly shown) [LFI 20] |  |  | Cmax (in vivo): 561 ng/mL
CCC(NCCCC[C@@H](Oc1cc(C)c(F)c(C)c1)C(=O)NO)c1ccc(F)cc1 (stereo partly shown) [LFI 19] |  | 1/3 | M = microsome stability, percent of compound remaining [3]: < 10%
Cc1cc(N[C@H](CCCCNCc2ccc(F)cc2)C(=O)NO)cc(C)c1F [LFI 1] | 16.8 | 3/5 and 3/3 | 
